One molecule from paper PMC4022547 (Molecular Brain, 2014) can be followed below.

Test [1] addresses hα6 + codon optimized hβ2 + hβ3^V9’S nAChR (Homo sapiens, UniProt P17787+Q15825). To be noted: 100 μM nicotine. Here is the method: (§1) We planned to introduce identical amounts of cRNA, presumably producing equal amounts of each subunit protein, into oocytes largely due to lack of information about the levels of mRNA for each subunits that compose α6*-nAChRs in neurons or other cells. Concentrations of cRNAs for each nAChR α and β subunits (WT, mutant or variant) were adjusted to 500 ng μL^−1. We provisionally assumed that hα6 or its variants in association with hβ2 or hβ4 subunits would form complexes having 2:3 and/or 3:2 ratios of the indicated subunits and that oocytes also injected with WT or mutant form of β3 subunits (i.e., β3^V9’S) would express nAChR with 2:2:1 ratios of α:β:(β3 or β3^V9’S) subunits. For expression of binary nAChRs (i.e., two subunit containing nAChRs; α + β but not β3) cRNA mixtures were prepared by mixing 1 μL of cRNA for each subunit and an additional μL of RNAse free water (i.e., total volume 3 μL). Similarly for expression of ternary nAChRs [i.e., three subunit containing nAChRs; (α + β) + (β3 or β3^V9’S)] cRNA mixtures were prepared by mixing 1 μL of cRNA for each subunit. Several preparations of each mixture were prepared and stored at −80°C until further use. Injection of 138 nL of cRNA, out of 3 μL cRNA mixtures, into each oocyte would deliver ~23 ng of cRNA for each subunit whether binary or ternary nAChRs are expressed.
(§2) Two to 5 days after injection, oocytes were placed in a small-volume chamber and continuously perfused with OR2. The chamber was grounded through an agarose bridge. The oocytes were voltage-clamped at −70 mV (unless otherwise noted) to measure agonist or antagonist induced currents using Axoclamp 900A and pClamp 10.2 software (Molecular Devices, Sunnyvale, CA). The current signal was low-pass filtered at 10 Hz with the built-in low-pass Bessel filter in the Axoclamp 900A and digitized at 20 Hz with Axon Digidata1440A and pClamp10. […] Drugs (agonists and antagonists) were prepared daily in OR2. Drug was applied using a Valvelink 8.2 perfusion system (Automate scientific, Berkeley, CA). […] Then for the purpose of comparison electrophysiological recordings were performed in a given day in a given batch of oocytes following the same order of injections. […] All hβ4*-nAChR recordings were done in similar conditions to facilitate comparisons between hα6hβ4- and hα6hβ4hβ3-nAChRs. All electrophysiological measurements were conducted or checked in at least two batches of oocytes.
(§3) Raw data was collected and processed in part using pClamp 10.2 (Molecular Devices, Sunnyvale, CA), Origin 7.5 (OriginLab Corporation, Northampton, MA) and a spreadsheet (Excel; Microsoft, Bellevue, WA). Peak current amplitudes (Imax) are reported as mean ± SEM (for results from at least three oocytes, i.e., n = 3).

The target in test [2] is hα6(A112V) + hβ4 + hβ3 nAChR (Homo sapiens, UniProt P30926+Q15825, A112V). To be noted: 100 μM nicotine; oocytes clamped at −70 mV. Here is the method:
as §1, §2, §3

The subject of test [3] is hα6(D199Y) + WT hβ2 + hβ3^V9’S nAChR. To be noted: 100 μM nicotine; higher, p < 0.05. The procedure:
as §1, §2, §3

Test [4] addresses hα6(D92E) + hβ4 + hβ3 nAChR (Homo sapiens, UniProt P30926+Q15825, D92E). To be noted: 100 μM nicotine; oocytes clamped at −70 mV. The procedure:
as §1, §2, §3

Test [5] deals with hα6(D92E) + hβ4 nAChR (Homo sapiens, UniProt P30926+Q15825, D92E). The following applies: 100 μM nicotine; oocytes clamped at −70 mV. Here is the method: as §1, §2, §3
In test [6] the target is hα6(I226T) + WT hβ2 + hβ3^V9’S nAChR (Homo sapiens, UniProt P17787+Q15825, I226T). The following applies: 100 μM nicotine. The procedure: as §1, §2, §3
Sequence of hα6(I226T) + WT hβ2 + hβ3^V9’S nAChR (Q15825 26-494 I226T): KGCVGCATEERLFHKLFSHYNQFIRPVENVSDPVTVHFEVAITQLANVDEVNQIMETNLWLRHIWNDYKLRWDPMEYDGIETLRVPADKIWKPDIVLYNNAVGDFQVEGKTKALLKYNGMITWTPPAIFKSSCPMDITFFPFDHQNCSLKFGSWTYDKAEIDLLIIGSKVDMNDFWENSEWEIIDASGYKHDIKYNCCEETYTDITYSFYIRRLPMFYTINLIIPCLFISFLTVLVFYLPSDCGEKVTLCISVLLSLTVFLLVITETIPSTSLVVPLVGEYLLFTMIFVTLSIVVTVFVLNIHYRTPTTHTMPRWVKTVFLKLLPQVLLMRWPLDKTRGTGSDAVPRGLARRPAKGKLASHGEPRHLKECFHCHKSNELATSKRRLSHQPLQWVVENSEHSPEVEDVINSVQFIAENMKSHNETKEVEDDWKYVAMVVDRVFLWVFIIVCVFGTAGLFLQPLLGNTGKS
Sequence of hα6(I226T) + WT hβ2 + hβ3^V9’S nAChR (P17787 26-502): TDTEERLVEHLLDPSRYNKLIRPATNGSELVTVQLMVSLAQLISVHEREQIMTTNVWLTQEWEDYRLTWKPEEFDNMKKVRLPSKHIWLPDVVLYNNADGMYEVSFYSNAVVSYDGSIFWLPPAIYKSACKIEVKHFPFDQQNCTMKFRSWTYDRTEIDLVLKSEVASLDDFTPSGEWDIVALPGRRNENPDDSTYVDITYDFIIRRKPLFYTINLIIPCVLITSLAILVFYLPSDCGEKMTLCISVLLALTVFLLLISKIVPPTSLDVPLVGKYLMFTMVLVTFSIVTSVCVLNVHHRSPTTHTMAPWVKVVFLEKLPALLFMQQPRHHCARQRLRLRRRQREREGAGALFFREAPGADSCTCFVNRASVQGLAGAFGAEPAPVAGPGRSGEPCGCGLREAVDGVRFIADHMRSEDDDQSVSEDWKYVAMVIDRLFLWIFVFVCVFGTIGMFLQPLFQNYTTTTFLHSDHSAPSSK
Sequence of hα6(I226T) + WT hβ2 + hβ3^V9’S nAChR (Q05901 25-458 V273S partner limits assumed): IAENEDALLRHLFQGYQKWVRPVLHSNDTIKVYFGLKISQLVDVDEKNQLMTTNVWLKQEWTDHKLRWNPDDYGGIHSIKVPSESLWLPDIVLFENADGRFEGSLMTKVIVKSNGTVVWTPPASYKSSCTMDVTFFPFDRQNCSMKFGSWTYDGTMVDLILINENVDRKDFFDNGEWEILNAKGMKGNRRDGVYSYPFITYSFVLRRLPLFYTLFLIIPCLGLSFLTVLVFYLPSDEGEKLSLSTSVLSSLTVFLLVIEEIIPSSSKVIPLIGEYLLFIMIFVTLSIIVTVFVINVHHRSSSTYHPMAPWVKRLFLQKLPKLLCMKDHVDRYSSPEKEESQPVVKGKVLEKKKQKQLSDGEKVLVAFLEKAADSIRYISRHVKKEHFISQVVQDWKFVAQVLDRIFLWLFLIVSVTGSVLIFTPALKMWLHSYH
In test [7] the target is hα6(I226T) + hβ4 + hβ3 nAChR (Homo sapiens, UniProt P30926+Q15825, I226T). To be noted: 100 μM nicotine; oocytes clamped at −70 mV. Here is the method:
as §1, §2, §3

The target in test [8] is hα6(N171K) + hβ4 + hβ3 nAChR (Homo sapiens, UniProt P30926+Q15825, N171K). To be noted: nicotine. The procedure:
as §1, §2, §3

Test [9] concerns the target hα6(N203T) + hβ4 nAChR (Homo sapiens, UniProt P30926+Q15825, N203T). To be noted: 100 μM nicotine; oocytes clamped at −70 mV. Here is the method: as §1, §2, §3
Test [10] has as its target hα6(R96H) + codon optimized hβ2 + hβ3^V9’S nAChR (Homo sapiens, UniProt P17787+Q15825, R96H). The following applies: 100 μM nicotine; oocytes clamped at −70 mV. The procedure: as §1, §2, §3
Test [11] has as its target hα6(S156R) + hβ4 + hβ3 nAChR (Homo sapiens, UniProt P30926+Q15825, S156R). To be noted: nicotine. Here is the method:
as §1, §2, §3

Test [12] deals with hα6(S233C) + WT hβ2 + hβ3^V9’S nAChR. The following applies: 100 μM nicotine; higher, p < 0.05. The procedure:
as §1, §2, §3

In test [13] the target is hα6^D57Nhβ4hβ3^V9’S-nAChR (Homo sapiens, UniProt P30926+Q15825, D57N). To be noted: nicotine (100 μM), ACh (100 μM) or atropine (1000 μM). The procedure:
as §1, §2

For test [14], the target named is hα6^N171Khβ4β3^V9’S-nAChR (Homo sapiens, UniProt P30926+Q15825, N171K). To be noted: nicotine (100 μM), ACh (100 μM) or atropine (1000 μM). Here is the method:
as §1, §2

For test [15], the target named is hα6^R87C + hβ4 + hβ3^V9’S nAChR (Homo sapiens, UniProt P30926+Q15825, R87C). To be noted: nicotine (100 μM), ACh (100 μM) or atropine (1000 μM). Here is the method: as §1, §2
Test [16] concerns the target hα6^S156Rhβ4hβ3^V9’S-nAChR (Homo sapiens, UniProt P30926+Q15825, S156R). The following applies: nicotine (100 μM), ACh (100 μM) or atropine (1000 μM). Here is the method:
as §1, §2

Test [17] has as its target hα6hβ4hβ3^V9’S-nAChR (Homo sapiens, UniProt P30926+Q05901+Q15825, V273S). The following applies: nicotine (100 μM), ACh (100 μM) or atropine (1000 μM); spontaneously opening channels. Here is the method:
as §1, §2

Molecules are shown by their SMILES.

Sequence of hα6 + codon optimized hβ2 + hβ3^V9’S nAChR (Q15825 26-494): as the sequence (Q15825 26-494 I226T) above, with T201I counted along it
Sequence of hα6 + codon optimized hβ2 + hβ3^V9’S nAChR (P17787 26-502): as the sequence (P17787 26-502) above
Sequence of hα6 + codon optimized hβ2 + hβ3^V9’S nAChR (Q05901 22-458 V273S partner): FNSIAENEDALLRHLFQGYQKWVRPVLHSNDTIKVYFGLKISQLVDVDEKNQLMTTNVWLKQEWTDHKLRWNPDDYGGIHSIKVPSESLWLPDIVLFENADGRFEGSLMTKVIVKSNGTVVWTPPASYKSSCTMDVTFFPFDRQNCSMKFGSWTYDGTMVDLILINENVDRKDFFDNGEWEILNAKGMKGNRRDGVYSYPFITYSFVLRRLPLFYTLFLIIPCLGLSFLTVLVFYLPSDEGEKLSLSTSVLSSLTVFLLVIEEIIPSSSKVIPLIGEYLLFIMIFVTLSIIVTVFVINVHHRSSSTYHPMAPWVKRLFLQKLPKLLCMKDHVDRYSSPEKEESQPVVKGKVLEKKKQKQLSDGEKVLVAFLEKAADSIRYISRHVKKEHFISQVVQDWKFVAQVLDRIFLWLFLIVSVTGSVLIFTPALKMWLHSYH
Sequence of hα6^D57Nhβ4hβ3^V9’S-nAChR (Q15825 26-494 D57N): as the sequence (Q15825 26-494 I226T) above, with D32N, T201I counted along it
Sequence of hα6^D57Nhβ4hβ3^V9’S-nAChR (P30926 22-498): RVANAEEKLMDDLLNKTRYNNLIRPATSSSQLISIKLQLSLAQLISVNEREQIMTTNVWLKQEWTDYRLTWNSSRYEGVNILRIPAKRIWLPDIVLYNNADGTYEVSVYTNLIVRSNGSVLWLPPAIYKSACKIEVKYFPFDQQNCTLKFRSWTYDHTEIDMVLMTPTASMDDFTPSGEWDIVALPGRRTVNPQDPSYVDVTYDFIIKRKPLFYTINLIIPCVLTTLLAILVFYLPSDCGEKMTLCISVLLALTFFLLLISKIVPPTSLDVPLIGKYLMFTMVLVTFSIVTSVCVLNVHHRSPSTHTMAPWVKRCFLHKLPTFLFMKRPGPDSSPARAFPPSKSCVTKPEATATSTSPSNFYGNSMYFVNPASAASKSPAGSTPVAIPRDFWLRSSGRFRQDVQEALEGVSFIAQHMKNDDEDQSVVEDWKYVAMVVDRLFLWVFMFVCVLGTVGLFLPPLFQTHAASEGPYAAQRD
Sequence of hα6^D57Nhβ4hβ3^V9’S-nAChR (Q05901 25-458 V273S partner limits assumed): as the sequence (Q05901 25-458 V273S partner limits assumed) above

For `CN1CCC[C@H]1c1cccnc1` [nicotine, L-nicotine], the “current response relative to receptor with WT hβ2” value in test [1] (codon optimized vs. WT hβ2) is given as ~ 31 fold. In addition, the “peak current (Imax, mean ± SE)” value in test [1] (oocytes clamped at −70 mV) amounted to 469 ± 75 nA; in test [5] it was 19 ± 2 nA; in test [9] it was 33 ± 3 nA; in [10], 1075 ± 175 nA. Also, the “Mean (±SE) peak current response” value is listed as 482 ± 59 nA in test [2], 126 ± 5 nA in test [4] and 403 ± 79 nA in test [7]. Besides, the “peak current response relative to hα6hβ2hβ3^V9’S-nAChRs” value in [3] and in [12] was 2-5 fold in each case. For the same molecule, in test [6] (3 days after cRNA injection), the peak current response is 15-30 nA. Besides, the “Mean (±SEM) current response” value in test [6] (5 days after injection) turned out to be 123 ± 40 nA. For the same molecule, the figures for the current response entry in test [8], in test [11] and in test [15] were “did not elicit current responses”, “did not elicit current responses” and “not obtained”, respectively. For the same molecule, the “current response (direction)” value in test [13] is “outward reversible currents”; in [14], “outward reversible currents”; in test [16], “outward reversible currents”; in test [17] it was “robust inward current”.
